# Data from patent publication US20250375461A1, “IDENTIFICATION OF A NEW POTENT INHIBITOR OF MYCOBACTERIAL GROWTH” (priority 2024, published 2025).
# Where two headings read alike, the source gives them in different places.
# Key:
# M. smegmatis [1] = test: Microscopy of M. smegmatis in presence of BI.aada; type: cell-based
# Description: (§1) In FIG. 1, […]=0.5×MIC. […] Magnification is 1000×. The compound BI.aada also has an MIC of […] against the gram-negative E. coli WO0153, which has a leaky outer membrane, and no activity against E. coli K12, which has a normal membrane. […] The stubby phenotype is similar to that observed with NAG-thiazoline (lytic transglycosylase inhibitor) with E. coli. In FIG. 3, purple: no growth; pink: bacterial growth; and MIC determined as lowest concentration that inhibits growth: 50 μM.
# E. coli K12 = test: Activity against E. coli K12 (normal membrane); type: cell-based
# Description: as §1
# M. absescus = test: MIC against M. absescus; type: cell-based
# E. coli WO0153 [2] = test: MIC assay: E. coli WO0153 (leaky outer membrane); type: cell-based
# Description: as §1
# M. avium = test: MIC against M. avium; type: cell-based; settings: Mycobacterium avium
# M. smegmatis [3] = test: MIC assay: M. smegmatis with BI.aada; type: cell-based; settings: Mycolicibacterium smegmatis
# Description: FIG. 4, FIG. 5, and FIG. 6 show enlarged views of MIC Assay: M. smegmatis with BI.aada.
# as §1
# E. coli WO0153 [4] = test: Microscopy of E. coli WO0153 in presence of BI.aada; type: cell-based
# Description: as §1
# Gram-negative bacteria = settings: cited from earlier work
# E. coli = settings: NAG thiazoline treatment; cited from earlier work
# Bacillus cereus = test: Resazurin microtiter whole cell assay, MIC, B. cereus; type: cell-based
# Description: Each Ugi reaction was carried out using either propargyl amine or propiolic acid as the alkyne component to provide either propionamides or N-propargyl amides as the diamide products. While Ugi-reactions can sometimes require prolonged reaction times, we identified conditions that reduced the reaction time to 4-5 hours at elevated temperature and in many cases proceeded to completion, enabling use of the Ugi product directly in the next reaction.^49-51 The Ugi-derived terminal alkynes were then subjected to a copper accelerated azide-alkyne coupling reaction using a redox couple of copper powder and copper (II) sulfate. To further facilitate synthesis of the library we simplified the purification of the compounds by using the alkyne building blocks in excess for the copper accelerated azide-alkyne coupling reaction. This ensured complete consumption of the azido sugar 1, and the unreacted alkyne residue could be easily removed using a silica plug after the reaction, eliminating the need for column chromatography. Removal of trace copper salts from the reaction was carried out by incubating the reaction solution with a commercially available copper chelating resin prior to purification using the silica plug. The library of GNTs was screened for its ability to inhibit the growth of a panel of different Gram-positive bacteria. […]
# B. cereus = test: Standard bactericidal assay (colony counts), B. cereus; type: cell-based
# Description: The library was initially screened against all test organisms at a single concentration (250 μM) (ESIt). This high initial concentration was chosen as many soluble derivatives of PG bind to bacterial autolysins with KD values in the high micromolar range.^53 Compounds showing at least 40% inhibition in growth were selected for further investigation. […] We identified two compounds that inhibited the growth of Bacillus cereus and Bacillus subtilis in the micromolar range (FIG. 9). […] Both BI.abcb and BI.fgba were screened in a standard bactericidal assay.^54 Briefly, B. subtilis and B. cereus were grown in either the absence or presence of inhibitor (at the MIC) for 4 hours.
# The cells were harvested, washed and subject to serial dilution prior to plating on nutrient broth agar.
structure (smiles),measurement,setting,value
CCCCNC(=O)C(C(C)C)N(CC(c1ccccc1)c1ccccc1)C(=O)c1cn(C2OC(CO)[C@@H](O)C(O)C2NC(C)=O)nn1 (stereo partly drawn) [BI.aada],phenotype in FIG. 1,"M. smegmatis [1]; 25 nM=0.5×MIC, magnification 1000×",aberrant division occurring along side wall
same,cell morphology (microscopy),M. smegmatis [1]; M. smegmatis in presence of BI.aada,altered cell morphology
same,activity against E. coli K12,E. coli K12,no activity
same,MIC,M. absescus,< 0.5 µM
same,MIC,M. absescus; Feature 15,< 0.5 µM
same,MIC,"E. coli WO0153 [2]; Escherichia coli, WO0153, read-out: MIC determined as lowest concentration that inhibits growth",50 µM
same,MIC,"E. coli WO0153 [2]; Escherichia coli, E. coli WO0153, leaky outer membrane, read-out: MIC",70 µM
same,MIC,"E. coli WO0153 [2]; Gram negative E. coli WO0153, Feature 16",70 µM
same,MIC,M. avium,< 0.5 µM
same,MIC,M. smegmatis [3],0.05 µM
same,cell morphology (microscopy),E. coli WO0153 [4]; E. coli WO0153 in presence of BI.aada,altered cell morphology
same,phenotype in FIG. 2,"E. coli WO0153 [4]; sub-MIC treated E. coli WO153, 50 µM BI.aada, compared to control",clumping phenotype
CC(=O)N[C@H]1[C@H](O[C@H]2C[C@@H](C(=O)NCCS(=O)(=O)O)N[C@@H]2CO)O[C@H](CO)[C@@H](OS(=O)(=O)O)[C@@H]1O [bulgecin A],minimum inhibitory concentration in whole cell assays,Gram-negative bacteria,do not demonstrate a measurable minimum inhibitory concentration
CC1=N[C@@H]2[C@@H](O)[C@H](O)[C@@H](CO)O[C@@H]2S1 [NAG thiazoline],effect on E. coli cells,E. coli,formation of shorter cells without affecting cell viability
same,minimum inhibitory concentration in whole cell assays,Gram-negative bacteria,do not demonstrate a measurable minimum inhibitory concentration
COc1ccc(C(C(=O)NCc2ccccc2)N(Cc2ccccc2)C(=O)c2cn(C3OC(CO)C(O)C(O)C3NC(C)=O)nn2)cc1 (stereo not drawn) [BI.abcb],MIC,Bacillus cereus,60 µM
same,nature of antibacterial action,B. cereus; colony counts similar to controls,bacteriostatic
same,Colony counts for growth in the presence of compound,"B. cereus; inhibitor at the MIC, 4 hours",7.00±1.70×10^8 cfu mL^−1
